Measurements taken from patent publication US11413337B2, “Peptide conjugated particles for the treatment of inflammation” (Northwestern University, priority 2012, dated 2022).
Where no end group is shown, it is not given here.

Columns and labels:
[1] = system: spleen, liver and lung; macrophages; test: detection and cellular localisation of particles after iv administration; conditions: 24 hours after intravenous infusion
Description: Naïve uninjected mouse (top row) as compared to i.v. fluorescent PLGA/PEMA microparticle injected mouse spleen (left column), liver (middle column) and lung (left column) sections at 3-hours post injection (middle row) and 24-hours (bottom row) post-injection, counterstained with DAPI.

[2] = system: Relapsing Experimental Autoimmune Encephalitis (R-EAE); test: prophylactic tolerance in PLP139-151/CFA-induced R-EAE, particles given day −7; type: in vivo, mouse; conditions: treated day −7 relative to immunization
Th1 and Th17 responses = test: induction of antigen-specific Th1 and Th17 responses, draining lymph node cells; type: in vivo, mouse; conditions: BALB/c mice, iv Day −7, measured Day 10
Experimental: To determine whether administration of antigen-coupled particles inhibit induction of T-helper cells, either MOG35-55-PLG or OVA323-339-PLG particles were administered intravenously to BALB/c mice at Day −7. On Day 0, OVA323-339-PLG particles and Complete Freund's Adjuvant (CFA) were administered subcutaneously to the mice. The animals were re-stimulated with either MOG35-55-PLG or OVA323-339-PLG particles on Day 10 and the draining lymph node cells were isolated. The CPM and levels of IL-17, GM-CSF, IFN-γ, IL-10, and IL-4 were measured at Day 10.

cervical spinal cord = test: spinal cord histology and in vivo imaging in R-EAE; parameters: species or system mouse; conditions: spinal cord, day 40
Experimental: An additional therapeutic tolerance strategy was performed by delivering PLP139-151-PLG or OVA323-339 PLG to mice. […] Mice were treated with PLP-PLG or OVA323-339-PLG and the tissue was retrieved at day 40. The cervical spinal cord was isolated and sectioned to investigate the immune response within the CNS, which underlies the pathology of R-EAE and multiple sclerosis.
The clinical scores and percent incidence of EAE were determined (FIG. 10B) and the spinal cords observed via in vivo imaging (FIGS. 10A and 11). […] The bar graphs give the numerical numbers to the signal strength shown in the brain and SC scans.

Row | Substance | cells taking up particles [1] | prevention of disease induction [2] | Th1 and Th17 responses (Th1 and Th17 responses) | staining for CD45, CD4, and CD11b (cervical spinal cord)
1 | TAMRA-labeled PLP139-151-coupled particles: particles coupled with TAMRA-labeled PLP139-151 (CHCLGKWLGHPDK; cysteine pairing not given here; also: TAMRA label, position not given here, coupled to particles; UniProt P60202 139-151, looked up, fragment) | marginal zone macrophages predominantly uptake |  |  | 
2 | OVA323-339-PLG: control peptide OVA323-339 coupled to PLG particles (KISQAVHAAHAEINEAG; also: coupled to PLG particles; UniProt P01012 323-339, looked up, fragment) |  | did not prevent disease induction | inhibited the Th1 and Th17 responses | positive staining
